In PubChem BioAssay AID256 (DTP/NCI, 2004) one finds T/C data, which are given here for 21 molecules.

Several values for one entry are separate records, joined by “and”; a condition that tells them apart may be missing. Equal values may be shown once. Inconclusive results and toxic doses are left out.

The experiment relates to CD2F1 mice, L1210 leukemia ip, survival T/C. Kind of experiment: NCI In Vivo Anticancer Drug Screen. Data for tumor model L1210 Leukemia (intraperitoneal) in CD2F1 (CDF1) mice. Particulars: higher = longer survival. In outline: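 Read-out first: treated-group measurement over vehicle-control measurement, expressed as a ratio. Animals bore a transplanted tumor line and were dosed with compound or vehicle.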

[1] abbreviates: endpoint: mean survival time, dose: 100.0 mg/kg/injection, schedule: Q01DX001 (ip), vehicle: saline with Tween-80.
Setting [2] is: endpoint: mean survival time, dose: 200.0 mg/kg/injection, schedule: Q01DX001 (ip), vehicle: saline with Tween-80.
The mark [3] stands for this setting: endpoint: mean survival time, dose: 400.0 mg/kg/injection, schedule: Q01DX001 (ip), vehicle: saline with Tween-80.
Setting [4] is: endpoint: mean survival time, dose: 100.0 mg/kg/injection, schedule: Q01DX001 (ip), vehicle: saline.
Where [5] appears, read: endpoint: mean survival time, dose: 200.0 mg/kg/injection, schedule: Q01DX001 (ip), vehicle: saline.
Where [6] appears, read: endpoint: mean survival time, dose: 100.0 mg/kg/injection, schedule: Q04DX003 (ip), vehicle: saline with Tween-80.
Where [7] appears, read: endpoint: mean survival time, dose: 200.0 mg/kg/injection, schedule: Q04DX003 (ip), vehicle: saline with Tween-80.
[8] abbreviates: endpoint: mean survival time, dose: 400.0 mg/kg/injection, schedule: Q04DX003 (ip), vehicle: saline with Tween-80.
Where [9] appears, read: endpoint: mean survival time, dose: 100.0 mg/kg/injection, schedule: Q01DX009 (ip), vehicle: saline with Tween-80.
[10] abbreviates: endpoint: mean survival time, dose: 200.0 mg/kg/injection, schedule: Q01DX009 (ip), vehicle: saline with Tween-80.
The mark [11] stands for this setting: endpoint: mean survival time, dose: 50.0 mg/kg/injection, schedule: Q01DX009 (ip), vehicle: Klucel (hydroxypropylcellulose) (HPC).
The mark [12] stands for this setting: endpoint: mean survival time, dose: 100.0 mg/kg/injection, schedule: Q01DX009 (ip), vehicle: Klucel (hydroxypropylcellulose) (HPC).
The mark [13] stands for this setting: endpoint: mean survival time, dose: 200.0 mg/kg/injection, schedule: Q01DX009 (ip), vehicle: Klucel (hydroxypropylcellulose) (HPC).

Regarding `CS(=O)(=O)OCCCN(CCCOS(C)(=O)=O)c1ccc(C=Nc2ccc(-c3csc(COc4ccc(Br)cc4)n3)cc2)cc1`, the T/C is, setting by setting: under setting [1], 94 % of control; under setting [2], 89 % of control; under setting [3], 88 % of control.
Regarding `COc1ccc(-c2nc(N)c3ncn(C4OC(CO)C(O)C4O)c3n2)cc1` (stereo not given), the T/C reads like this: (endpoint: mean survival time, dose: 12.5 mg/kg/injection, schedule: Q01DX005 (ip), vehicle: distilled water + Tween-80) 98 % of control; (endpoint: mean survival time, dose: 25.0 mg/kg/injection, schedule: Q01DX005 (ip), vehicle: distilled water + Tween-80) 98 % of control; (endpoint: mean survival time, dose: 50.0 mg/kg/injection, schedule: Q01DX005 (ip), vehicle: distilled water + Tween-80) 96 % of control; (endpoint: mean survival time, dose: 200.0 mg/kg/injection, schedule: Q01DX005 (ip), vehicle: distilled water + Tween-80) 88 % of control.
For `O=C(CCc1ccc(O)cc1)c1c(O)cc(O)cc1OC1OC(CO)C(O)C(O)C1O` (stereo not given), the T/C under setting [4] is 102 % of control; the T/C under setting [5] was 98 % of control; the T/C (endpoint: mean survival time, dose: 400.0 mg/kg/injection, schedule: Q01DX001 (ip), vehicle: saline) was 104 % of control.
Regarding `COc1ccc(-c2cc(C(=O)O)c3ccc(C)cc3n2)cc1`, the T/C reads like this: under setting [6], 102 % of control; under setting [7], 101 % of control; under setting [8], 101 % of control.
On to `O=c1cc(NCCCCOc2ccccc2)[nH]c(=O)[nH]1`, for which the T/C is, setting by setting: under setting [1], 96 % of control; under setting [2], 93 % of control; under setting [3], 96 % of control.
With `[Cl][Pt+2][Cl].[NH-]CC([NH-])c1ccc2oc3ccccc3c2c1` (stereo not given), the T/C is 100 % of control (endpoint: median survival time, dose: 10.0 mg/kg/injection, schedule: Q04DX003 (ip), vehicle: saline); 94 % of control (endpoint: median survival time, dose: 20.0 mg/kg/injection, schedule: Q04DX003 (ip), vehicle: saline); 105 % of control (endpoint: median survival time, dose: 40.0 mg/kg/injection, schedule: Q04DX003 (ip), vehicle: saline); 107 % of control (endpoint: median survival time, dose: 80.0 mg/kg/injection, schedule: Q04DX003 (ip), vehicle: saline with Tween-80); 110 % of control (endpoint: median survival time, dose: 80.0 mg/kg/injection, schedule: Q04DX003 (ip), vehicle: saline).
With `Cc1[nH]nc2c1CCCC2`, the T/C runs as follows: (endpoint: mean survival time, dose: 100.0 mg/kg/injection, schedule: Q01DX009 (ip), vehicle: other) 101 % of control; (endpoint: mean survival time, dose: 200.0 mg/kg/injection, schedule: Q01DX009 (ip), vehicle: other) 97 % of control.
On to `CC(=O)Nc1ccc(NC(=O)Nc2ccc(C)c([N+](=O)[O-])c2)cc1`, for which the T/C was 98 % of control (endpoint: mean survival time, dose: 50.0 mg/kg/injection, schedule: Q01DX009 (ip), vehicle: saline with Tween-80); 98 % of control under setting [9]; 98 % of control under setting [10].
Take `O=Nn1c2ccccc2c2ccccc21`: the T/C under setting [11] was 90 % of control, the T/C under setting [12] is 98 % of control and the T/C under setting [13] was 102 % of control.
As to `O=C(O)COc1cc(F)c(Cl)cc1F`, the T/C is 102 % of control (endpoint: mean survival time, dose: 100.0 mg/kg/injection, schedule: Q04DX002 (ip), vehicle: saline with Tween-80); 105 % of control (endpoint: mean survival time, dose: 200.0 mg/kg/injection, schedule: Q04DX002 (ip), vehicle: saline with Tween-80); 109 % of control (endpoint: mean survival time, dose: 400.0 mg/kg/injection, schedule: Q04DX002 (ip), vehicle: saline with Tween-80).
Turning to `CC(C)(C)OC(=O)N1CCCC1C(=O)O` (stereo not given), the T/C under setting [6] was 96 % of control, the T/C under setting [7] is 101 % of control and the T/C under setting [8] is 110 % of control.
Consider `O=S(=O)(Cc1ccccc1)CS(=O)(=O)Cc1ccccc1`, for which the T/C is 98 % of control under setting [1], 97 % of control under setting [2] and 86 % of control under setting [3].
Regarding `CO[C@@]12[C@@H]3N[C@@H]3CN1C1=C(C(=O)C(Nc3nc(C)c(C)s3)=C(C)C1=O)[C@@H]2COC(N)=O`, the T/C by setting is: (endpoint: median survival time, dose: 1.5 mg/kg/injection, schedule: Q01DX001 (ip), vehicle: distilled water + Tween-80) 98 % of control and 101 % of control; (endpoint: median survival time, dose: 3.0 mg/kg/injection, schedule: Q01DX001 (ip), vehicle: distilled water + Tween-80) 120 % of control and 101 % of control and 102 % of control; (endpoint: median survival time, dose: 6.0 mg/kg/injection, schedule: Q01DX001 (ip), vehicle: distilled water + Tween-80) 123 % of control and 101 % of control (2×); (endpoint: median survival time, dose: 12.0 mg/kg/injection, schedule: Q01DX001 (ip), vehicle: distilled water + Tween-80) 98 % of control and 101 % of control; (endpoint: median survival time, dose: 24.0 mg/kg/injection, schedule: Q01DX001 (ip), vehicle: distilled water + Tween-80) 121 % of control and 102 % of control and 106 % of control.
`COC1=C(OC)C(=O)C(SCc2ccc(OC)cc2)=CC1=O`: the T/C was 102 % of control (endpoint: mean survival time, dose: 6.25 mg/kg/injection, schedule: Q01DX009 (ip), vehicle: saline with Tween-80); 91 % of control (endpoint: mean survival time, dose: 12.5 mg/kg/injection, schedule: Q01DX009 (ip), vehicle: saline with Tween-80); 87 % of control (endpoint: mean survival time, dose: 25.0 mg/kg/injection, schedule: Q01DX009 (ip), vehicle: saline with Tween-80).
Regarding `ClC(Cl)=C(c1ccc(Cl)cc1)c1ccc(Cl)cc1`, the T/C reads like this: under setting [9], 103 % of control; under setting [10], 97 % of control; (endpoint: mean survival time, dose: 400.0 mg/kg/injection, schedule: Q01DX009 (ip), vehicle: saline with Tween-80) 101 % of control.
As to `COc1ccc(OC)c(C2(O)C=C(Cl)C(=O)C=C2Cl)c1` (stereo not given), the T/C reads like this: under setting [1], 101 % of control; under setting [2], 97 % of control.
Consider `NSc1ccc([N+](=O)[O-])cc1`, for which the T/C runs as follows: (endpoint: mean survival time, dose: 25.0 mg/kg/injection, schedule: Q01DX001 (ip), vehicle: other) 270 % of control; (endpoint: mean survival time, dose: 50.0 mg/kg/injection, schedule: Q01DX001 (ip), vehicle: other) 204 % of control.
Regarding `CC(=O)Nc1nc(C)c(CCCOc2ccc([N+](=O)[O-])cc2)c(=O)[nH]1`, the T/C is 97 % of control under setting [11], 90 % of control under setting [12] and 90 % of control under setting [13].
For the molecule `COC(=O)c1c2ccccc2[n+](C)c2ccccc12`, the T/C reads like this: (endpoint: mean survival time, dose: 12.5 mg/kg/injection, schedule: Q01DX009 (ip), vehicle: saline) 95 % of control; (endpoint: mean survival time, dose: 25.0 mg/kg/injection, schedule: Q01DX009 (ip), vehicle: saline) 95 % of control; (endpoint: mean survival time, dose: 50.0 mg/kg/injection, schedule: Q01DX009 (ip), vehicle: saline) 100 % of control; under setting [4], 91 % of control; under setting [5], 96 % of control.
Turning to `NC(=O)NNC(=O)C(Cl)(Cl)Cl`, the T/C (endpoint: mean survival time, dose: 100.0 mg/kg/injection, schedule: Q04DX002 (ip), vehicle: saline) is 103 % of control.
Take `CC(/C=N/NC(N)=S)Cc1ccc(C(C)C)cc1` (stereo not given): the T/C (endpoint: mean survival time, dose: 3.12 mg/kg/injection, schedule: Q01DX009 (ip), vehicle: acetone) is 104 % of control; the T/C (endpoint: mean survival time, dose: 6.25 mg/kg/injection, schedule: Q01DX009 (ip), vehicle: acetone) is 104 % of control; the T/C (endpoint: mean survival time, dose: 12.5 mg/kg/injection, schedule: Q01DX009 (ip), vehicle: acetone) was 104 % of control.
